Results: ChEMBL document CHEMBL1132459, “Design of MKC-442 (emivirine) analogues with improved activity against drug-resistant HIV mutants” (J Med Chem, 1999)

Tests used:
Conditions in all cases: Homo sapiens
HeLa [1] = assay: Compound was tested for its inhibition of HIV-1 induced focus formation in MAGI-CCR5 cells in strains like NL4-3; type: functional, cell-based
HeLa [2] = assay: Compound was tested for its inhibition of HIV-1 induced focus formation in MAGI-CCR5 cells in strains like IIIB; type: functional, cell-based
HeLa [3] = assay: Compound was tested for its inhibition of HIV-1 induced focus formation in MAGI-CCR5 cells in strains like NL4-3K103N; type: functional, cell-based
HeLa [4] = assay: Compound was tested for its cytotoxicity depending on the viability of mock-infected cells; type: functional
HeLa [5] = assay: Compound was tested for its inhibition of HIV-1 induced focus formation in MAGI-CCR5 cells in strains like IIIB-R(Y181C); type: functional, cell-based

SMILES	EC50 (HeLa [1]) [µM]	EC50 (HeLa [2]) [µM]	EC50 (HeLa [3]) [µM]	CC50 (HeLa [4]) [µM]	EC50 (HeLa [5]) [µM]
CCOCn1c(Cc2cc(C)cc(C)c2)c(C(C)C)c(=O)[nH]c1=O	0.001	0.001	0.04	52.5	0.18
CCOCn1c(SC2CCCCC2)c(C(C)C)c(=O)[nH]c1=O	0.003	0.003	0.25	74.8	0.27
CCOCn1c(Cc2ccccc2)c(C(C)C)c(=O)[nH]c1=O [EMIVIRINE]	0.001	0.004	1.26	> 100	13.4
